Test results taken from the CheMixHub viscosity set.

Experiment: xn = mol fraction of the nth substance listed

CC(C)(C)O + CC(C)O
303.2 K, 101.33 kPa
Settings	viscosity [mPa·s]
x2 = 0.05	3.297
x2 = 0.1	3.237
x2 = 0.15	3.172
x2 = 0.2	3.101
x2 = 0.3	2.931
x2 = 0.4	2.75
x2 = 0.5	2.572
x2 = 0.6	2.396
x2 = 0.7	2.224
x2 = 0.8	2.059
x2 = 0.85	1.979
x2 = 0.9	1.9
x2 = 0.95	1.831

COCCOCCOCCO + CC(C)O
viscosity [mPa·s], 101 kPa
Settings	x1 = 0.0079	x1 = 0.0146	x1 = 0.0314	x1 = 0.0413	x1 = 0.0581	x1 = 0.0775	x1 = 0.1025
298.15 K	2.089	2.09	2.099	2.116	2.128	2.159	2.207
308.15 K	1.568	1.574	1.594	1.608	1.628	1.683	1.706
318.15 K	1.202	1.21	1.235	1.252	1.266	1.3	1.343

CC(C)(C)O + CCC(C)=O
viscosity [mPa·s]
Settings	298.15 K	303.15 K	308.15 K	313.15 K	318.15 K
101 kPa, x1 = 0.0925	0.3917	0.3748	0.3599	–	–
101 kPa, x1 = 0.1893	0.4117	0.3946	0.3737	–	–
101 kPa, x1 = 0.2885	0.4407	0.4203	0.3964	–	–
101 kPa, x1 = 0.3835	0.4875	0.452	0.422	–	–
101 kPa, x1 = 0.4877	0.5818	0.5397	0.4915	–	–
101 kPa, x1 = 0.5862	0.7295	0.6627	0.602	–	–
101 kPa, x1 = 0.6907	0.9865	0.8797	0.7882	–	–
101 kPa, x1 = 0.7895	1.424	1.237	1.085	–	–
101 kPa, x1 = 0.8935	2.253	1.879	1.588	–	–
101.3 kPa, x1 = 0.0985	0.423	0.401	0.38	0.361	0.343
101.3 kPa, x1 = 0.1968	0.464	0.438	0.413	0.391	0.37
101.3 kPa, x1 = 0.2962	0.52	0.487	0.457	0.429	0.405
101.3 kPa, x1 = 0.3941	0.595	0.553	0.514	0.48	0.449
101.3 kPa, x1 = 0.4949	0.705	0.647	0.596	0.551	0.511
101.3 kPa, x1 = 0.5928	0.859	0.779	0.708	0.647	0.593
101.3 kPa, x1 = 0.695	1.116	0.99	0.884	0.793	0.716
101.3 kPa, x1 = 0.8003	1.577	1.357	1.178	1.031	0.909
101.3 kPa, x1 = 0.9037	2.474	2.029	1.687	1.421	1.212

CCNCC + CCC(C)=O
298.15 K, 101 kPa
Settings	viscosity [mPa·s]
x2 = 0.1013	0.273
x2 = 0.2023	0.279
x2 = 0.303	0.283
x2 = 0.4034	0.287
x2 = 0.5035	0.293
x2 = 0.6034	0.3
x2 = 0.703	0.313
x2 = 0.8023	0.331
x2 = 0.9013	0.353

CCNCC + CCC(C)O
viscosity [mPa·s], 100 kPa
Settings	293.15 K	298.15 K	303.15 K	308.15 K	313.15 K	318.15 K	323.15 K
x1 = 0.0221	3.49	2.91	2.42	2.04	1.73	1.49	1.28
x1 = 0.081	3.02	2.54	2.12	1.82	1.55	1.34	1.18
x1 = 0.1601	2.49	2.11	1.8	1.56	1.33	1.16	1.049
x1 = 0.24	2.04	1.75	1.51	1.31	1.15	1.01	0.93
x1 = 0.3494	1.602	1.37	1.17	1.033	0.92	0.83	0.771
x1 = 0.4395	1.32	1.13	0.98	0.867	0.78	0.71	0.66
x1 = 0.5602	1.032	0.868	0.754	0.68	0.62	0.574	0.533
x1 = 0.65	0.827	0.712	0.628	0.57	0.528	0.489	0.459
x1 = 0.74	0.662	0.58	0.515	0.48	0.443	0.416	0.389
x1 = 0.8503	0.496	0.447	0.41	0.38	0.359	0.337	0.318
x1 = 0.94	0.384	0.356	0.335	0.309	0.298	0.284	0.268
x2 = 0.0129	0.336	0.317	0.3	0.284	0.27	0.257	0.244

COCCOCCOCCO + CCC(C)O
viscosity [mPa·s], 101 kPa
Settings	x1 = 0.0039	x1 = 0.0079	x1 = 0.0151	x1 = 0.0318	x1 = 0.0511	x1 = 0.08	x1 = 0.1038
298.15 K	3.101	3.074	3.046	2.988	2.947	2.893	2.942
308.15 K	2.163	2.161	2.148	2.133	2.132	2.128	2.186
318.15 K	1.565	1.562	1.564	1.569	1.577	1.611	1.674

Nc1ccccc1 + CCC(C)O
303 K, 101.33 kPa
Settings	viscosity [mPa·s]
x1 = 0.1	2.052
x1 = 0.2	1.978
x1 = 0.3	1.954
x1 = 0.4	1.944
x1 = 0.5	2.076
x1 = 0.6	2.156
x1 = 0.8	2.504
x1 = 0.9	2.835

CCNCC + CCCC(C)O
viscosity [mPa·s], 100 kPa
Settings	293.15 K	298.15 K	303.15 K	308.15 K	313.15 K	318.15 K	323.15 K
x1 = 0.0218	3.75	3.12	2.6	2.18	1.85	1.59	1.37
x1 = 0.081	3.2	2.7	2.28	1.92	1.66	1.44	1.25
x1 = 0.16	2.57	2.207	1.9	1.62	1.42	1.25	1.1
x1 = 0.2399	2.04	1.78	1.555	1.35	1.204	1.07	0.96
x1 = 0.3499	1.5	1.33	1.18	1.05	0.945	0.858	0.78
x1 = 0.44	1.16	1.04	0.94	0.85	0.778	0.71	0.65
x1 = 0.56	0.84	0.76	0.7	0.644	0.592	0.544	0.494
x1 = 0.6501	0.68	0.629	0.577	0.53	0.489	0.446	0.41
x1 = 0.74	0.552	0.506	0.466	0.435	0.4	0.367	0.34
x1 = 0.8497	0.45	0.416	0.387	0.36	0.335	0.311	0.285
x1 = 0.9397	0.368	0.346	0.325	0.304	0.285	0.268	0.25
x2 = 0.0189	0.332	0.316	0.3	0.283	0.268	0.254	0.24

COCCOCCOCCO + CCCC(C)O
viscosity [mPa·s], 101 kPa
Settings	x1 = 0.0047	x1 = 0.0177	x1 = 0.0299	x1 = 0.0546	x1 = 0.0827	x1 = 0.1089
298.15 K	3.349	3.306	3.258	3.191	3.143	3.122
308.15 K	2.319	2.316	2.3	2.288	2.285	2.295
318.15 K	1.672	1.676	1.684	1.695	1.712	1.732

CC(C)C=O + CCCC=O
viscosity [mPa·s], 100 kPa
Settings	293.5 K	293.51 K	317.08 K	318.11 K
x1 = 0.12	–	23.21	17.25	–
x1 = 0.2	2.307	–	–	1.698

Cc1ccc(NC(=O)NCCCCCCCCCCC(C)C)cc1NC(=O)NCCCCCCCCCCC(C)C + CCCCC
Settings	viscosity [mPa·s]
293.15 K, 100 kPa, x1 = 0.0001	204
